Assay results as given in ChEMBL document CHEMBL5352470, “RS6077 induces mitotic arrest and selectively activates cell death in human cancer cell lines and in a lymphoma tumor in vivo” (Eur J Med Chem, 2023).
Active and inactive are the calls of the source. The calls are words filed in the database; no cut-off is given here.

Key:
HeLa [1] = test: Induction of cell cycle arrest in human HeLa cells assessed as accumulation of cells at G2/M phase at 100 nM incubated for 72 hrs by annexin V-FITC and PI staining based flow cytometry analysis; assay type: functional
[2] = Toxicity in human T cells derived from human PBMC assessed as viable cells at 1 uM measured for 72 hrs by annexin V-FITC and PI staining based flow cytometry analysis (reference value: 66.5 to 77.5 %); assay type: cell-based, T-cell; conditions: read-out: Activity
KARPAS-422 = test: Antiproliferative activity against human KARPAS-422 cells assessed as inhibition of cell growth measured for 72 hrs by MTT assay; assay type: functional, cell-based; conditions: KARPAS-422, 72 h
Maver1 = test: Antiproliferative activity against human MAVER-1 cells assessed as inhibition of cell growth measured for 72 hrs by MTT assay; assay type: functional, cell-based; conditions: Maver1, 72 h
AHH-1 [3] = test: Induction of cell cycle arrest in human AHH-1 cells assessed as accumulation of cells at G2/M phase at 1000 nM incubated for 72 hrs by annexin V-FITC and PI staining based flow cytometry analysis; assay type: functional
TERT-RPE1 [4] = test: Induction of cell cycle arrest in human TERT-RPE1 cells assessed as accumulation of cells at G1 phase at 100 nM incubated for 72 hrs by annexin V-FITC and PI staining based flow cytometry analysis; assay type: functional
TMD8 [5] = test: Antitumor activity against human TMD8 cells xenografted in NOD/SCID mouse assessed as reduction in tumor volume at 100 mg/kg, po administered for 5 days and measured on day 6; assay type: functional; conditions: time 6 day
U2932 = test: Antiproliferative activity against human U2932 cells assessed as inhibition of cell growth measured for 72 hrs by MTT assay; assay type: functional, cell-based; conditions: U2932, 72 h
MCF7 = test: Antiproliferative activity against human MCF7 cells assessed as inhibition of cell growth measured for 48 hrs by MTT assay; assay type: functional, cell-based; conditions: MCF7, 48 h
HeLa [6] = test: Induction of cell cycle arrest in human HeLa cells assessed as accumulation of cells at G1 phase at 100 nM incubated for 72 hrs by annexin V-FITC and PI staining based flow cytometry analysis; assay type: functional
[7] = Toxicity in human T cells derived from human PBMC assessed as late apoptotic cells at 0.1 uM measured for 48 hrs by annexin V-FITC and PI staining based flow cytometry analysis (reference value: 13.5 to […] %); conditions: t-cell
HeLa [8] = test: Induction of cell cycle arrest in human HeLa cells assessed as accumulation of cells at G2/M phase at 1000 nM incubated for 72 hrs by annexin V-FITC and PI staining based flow cytometry analysis; assay type: functional
HeLa [9] = test: Induction of cell cycle arrest in human HeLa cells assessed as accumulation of cells at S phase at 2500 nM incubated for 72 hrs by annexin V-FITC and PI staining based flow cytometry analysis; assay type: functional
[10] = Toxicity in human T cells derived from human PBMC assessed as late apoptotic cells at 2.5 uM measured for 48 hrs by annexin V-FITC and PI staining based flow cytometry analysis (reference value: 13.5 to […] %); conditions: t-cell
AHH-1 [11] = test: Induction of cell cycle arrest in human AHH-1 cells assessed as accumulation of cells at G1 phase at 1000 nM incubated for 72 hrs by annexin V-FITC and PI staining based flow cytometry analysis; assay type: functional
HeLa [12] = test: Induction of cell cycle arrest in human HeLa cells assessed as accumulation of cells at S phase at 100 nM incubated for 72 hrs by annexin V-FITC and PI staining based flow cytometry analysis; assay type: functional
[13] = Toxicity in human T cells derived from human PBMC assessed as necrotic cells at 1 uM measured for 48 hrs by annexin V-FITC and PI staining based flow cytometry analysis (reference value: 0.31 to 0.48 %); conditions: t-cell
[14] = Metabolic stability in human liver microsome assessed as intrinsic clearance measured upto 60 mins by LC-MS/MS analysis; assay type: ADME; conditions: liver microsomes, read-out: CLH
TERT-RPE1 [15] = test: Induction of cell cycle arrest in human TERT-RPE1 cells assessed as accumulation of cells at G2/M phase at 2500 nM incubated for 72 hrs by annexin V-FITC and PI staining based flow cytometry analysis; assay type: functional
[16] = Toxicity in human T cells derived from human PBMC assessed as early apoptotic cells at 1 uM measured for 72 hrs by annexin V-FITC and PI staining based flow cytometry analysis (reference value: 9.70 to […]); conditions: t-cell
[17] = Toxicity in human T cells derived from human PBMC assessed as necrotic cells at 0.1 uM measured for 48 hrs by annexin V-FITC and PI staining based flow cytometry analysis (reference value: 0.31 to 0.48 %); conditions: t-cell
AHH-1 [18] = test: Induction of cell cycle arrest in human AHH-1 cells assessed as accumulation of cells at S phase at 1000 nM incubated for 72 hrs by annexin V-FITC and PI staining based flow cytometry analysis; assay type: functional
AHH-1 [19] = test: Induction of apoptosis in human AHH-1 cells at 1000 to 2500 nM measured after 72 hrs by annexin V-FITC and PI staining based flow cytometry analysis; assay type: functional; conditions: dose 1000-2500 nM
[20] = Toxicity in human T cells derived from human PBMC assessed as early apoptotic cells at 2.5 uM measured for 48 hrs by annexin V-FITC and PI staining based flow cytometry analysis (reference value: 6.75 to 8.22 %); conditions: t-cell
TMD8 [21] = test: Antitumor activity against human TMD8 cells xenografted in NOD/SCID mouse assessed as reduction in tumor volume at 100 mg/kg, po administered for 5 days and measured on day 1; assay type: functional; conditions: time 1 day
TERT-RPE1 [22] = test: Antiproliferative activity against human TERT-RPE1 cells assessed as inhibition of cell growth measured for 48 hrs by MTT assay; assay type: functional, cell-based; conditions: RPE-1, 48 h
TMD8 [23] = test: Antitumor activity against human TMD8 cells xenografted in NOD/SCID mouse assessed as reduction in tumor volume at 100 mg/kg, po administered for 5 days and measured on day 9; assay type: functional; conditions: time 9 day
TMD8 [24] = test: Antiproliferative activity against human TMD8 cells assessed as inhibition of cell growth measured for 72 hrs by MTT assay; assay type: functional, cell-based; conditions: TMD8, 72 h
Farage = test: Antiproliferative activity against human Farage cells assessed as inhibition of cell growth measured for 72 hrs by MTT assay; assay type: functional, cell-based
AHH-1 [25] = test: Induction of apoptosis in human AHH-1 cells at 100 nM measured after 72 hrs by annexin V-FITC and PI staining based flow cytometry analysis; assay type: functional
TERT-RPE1 [26] = test: Induction of cell cycle arrest in human RPE-1 cells assessed as accumulation of cells at G2 phase incubated for 72 hrs by annexin V-FITC and PI staining based flow cytometry analysis; assay type: functional
AHH-1 [27] = test: Induction of cell cycle arrest in human AHH-1 cells assessed as accumulation of cells at S phase at 2500 nM incubated for 72 hrs by annexin V-FITC and PI staining based flow cytometry analysis; assay type: functional
TERT-RPE1 [28] = test: Induction of cell cycle arrest in human TERT-RPE1 cells assessed as accumulation of cells at S phase at 100 nM incubated for 72 hrs by annexin V-FITC and PI staining based flow cytometry analysis; assay type: functional
AHH-1 [29] = test: Induction of cell cycle arrest in human AHH-1 cells assessed as accumulation of cells at G2/M phase at 100 nM incubated for 72 hrs by annexin V-FITC and PI staining based flow cytometry analysis; assay type: functional

COc1cc(C(=O)c2ccn(-c3ncnc4[nH]ccc34)c2)cc(OC)c1OC
Activity (HeLa [1]): 28.3%
viability at 72 h, 1 µM [2]: 64.7%
IC50 (KARPAS-422): 0.0363 µM
IC50 (Maver1): 0.0631 µM
Activity (AHH-1 [3]): 70.8%
Activity (TERT-RPE1 [4]): 13.9%
Activity (TMD8 [5]): 407 mm3
IC50 (U2932): 0.021 µM
IC50 (MCF7): 0.038 µM
Activity (HeLa [6]): 28.5%
Activity [7]: 13.3%
Activity (HeLa [8]): 33.8%
Activity (HeLa [9]): 48.7%
Activity [10]: 12.2%
Activity (AHH-1 [11]): 9.5%
Activity (HeLa [12]): 43.2%
Activity [13]: 0.24%
microsomal CLint [14]: 28 µL/min/mg
Activity (TERT-RPE1 [15]): 72.7%
Activity [16]: 11.6%
Activity [17]: 0.28%
Activity (AHH-1 [18]): 18.4%
Activity (AHH-1 [19]): 80%
Activity [20]: 7.06%
Activity (TMD8 [21]): 252 mm3
IC50 (TERT-RPE1 [22]): 0.101 µM
Activity (TMD8 [23]): 402 mm3
IC50 (TMD8 [24]): 0.0216 µM
IC50 (Farage): 0.0176 µM
Activity (AHH-1 [25]): 60%
Activity (TERT-RPE1 [26]): inactive
Activity (AHH-1 [27]): 19.4%
Activity (TERT-RPE1 [28]): 2.3%
Activity (AHH-1 [29]): 32%
